Test results published in patent US20080021026A1, “BENZOTHIOPHENE INHIBITORS OF RHO KINASE” (priority 2006, published 2008).

Each compound was assayed against T1, recombinant N-terminal GST-tagged human Rho kinase 2 (ROCK2, amino acids 1-552) (Homo sapiens, UniProt O75116) (assay: In vitro Rho kinase assay (luciferase-based ATP consumption), ROCK2). Details: ROCK2 IC50, recombinant GST-tagged human ROCK2, luciferase-based ATP consumption.
T1 construct: ROCK2, amino acids 1-552; purchased Invitrogen Inc. PV3759
Assay type: biochemical
Procedure: In Vitro Rho Kinase Assay
Rho kinase biochemical assays described below depend on firefly luciferase-based, indirect measurement of total ATP consumption by the kinase following incubation with substrate and ATP. 25 μl of Rho kinase assay buffer (20 mM Tris-HCL [pH 7.5], 1 mM MgCl2, 0.4 mM CaCl2, 0.15 mM EGTA, 0.1 mg/ml bovine serum albumin) containing 0.82 μg/ml of recombinant N-terminal GST-tagged human Rho kinase 1 (ROCK1, amino acids 1-535, Invitrogen Inc., cat. #PV-3691) or recombinant N-terminal GST-tagged human Rho kinase 2 (ROCK2, amino acids 1-552, Invitrogen Inc., cat #PV3759), 100 μg/ml S6 peptide substrate (related to amino acids 218-249 of the human 40S ribosomal protein S6, and suitable for ROCK1 or ROCK2, e.g. Upstate/Millipore Inc., cat #12-420), and 3 µM ATP are dispensed to wells of a 384 multi-well opaque plate. The plate is centrifuged for 30 seconds at approximately 200×g. 240 nl of test compound in DMSO is dispensed to each well by passive pin transfer. The lag phase of this in vitro kinase reaction permits addition of compounds soon after the reaction initiates. The reaction is allowed to incubate at 30° C. for 2 hours. The assay plates are sealed and maintained in a humidified environment. After 2 hours, 25 μl of easylite protein kinase assay reagent (Perkin-Elmer, Inc.) is dispensed. After an additional 10 minute incubation at room temperature (about 22° C.), luminescence activity is measured on a Molecular Devices Analyst multi-mode plate reader or other suitable plate reader. Kinase inhibition results in less ATP consumption, and therefore increased luminescence signal. Negative control activity is measured with DMSO lacking any test compound. The positive control is 2-methyl-1-(4-methylisoquinolin-5-ylsulfonyl)perhydro-1,4-diazepine hydrochloride (aka H-1152P, HCl salt). Efficacy is measured as a percentage of positive control activity. […] In some cases, kinase reactions and compound testing are performed in 1536 multi-well plates under similar conditions, with assay volumes appropriately scaled. The designation NT means the cited example was not tested.

T1 sequence (O75116 1-552): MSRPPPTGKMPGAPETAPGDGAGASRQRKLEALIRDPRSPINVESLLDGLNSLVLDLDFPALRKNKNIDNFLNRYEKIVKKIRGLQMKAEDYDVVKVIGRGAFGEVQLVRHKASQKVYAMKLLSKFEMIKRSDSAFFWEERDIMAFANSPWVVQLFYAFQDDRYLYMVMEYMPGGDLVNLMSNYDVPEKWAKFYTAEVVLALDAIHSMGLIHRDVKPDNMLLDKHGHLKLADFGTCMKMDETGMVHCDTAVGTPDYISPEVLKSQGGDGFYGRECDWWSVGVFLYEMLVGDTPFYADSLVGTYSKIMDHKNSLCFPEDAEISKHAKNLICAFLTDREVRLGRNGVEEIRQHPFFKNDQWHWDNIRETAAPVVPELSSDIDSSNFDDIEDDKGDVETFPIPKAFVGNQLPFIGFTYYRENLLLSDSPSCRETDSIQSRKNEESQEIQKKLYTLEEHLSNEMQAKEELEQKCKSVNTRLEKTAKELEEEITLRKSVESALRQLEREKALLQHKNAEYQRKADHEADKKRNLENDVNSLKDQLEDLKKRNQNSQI

How did the IC50 turn out when Cc1c(-c2ccnc(N)n2)sc2ccc(C(=O)NCCc3ccccc3Cl)cc12 [Example 427, Cc1c(sc2ccc(cc12)C(═O)NCCc3ccccc3Cl)-c4ccnc(N)n4] was run?
Its IC50 is less than 5 µM.

Same assay, conditions: recombinant GST-tagged human ROCK2, luciferase-based ATP consumption; read-out: ROCK2 IC50

With Cc1c(-c2ccnc(N)n2)sc2ccc(C(=O)N3CCN(C)CC3)cc12 [Example 474, CN1CCN(CC1)C(═O)c2ccc3sc(c(C)c3c2)-c4ccnc(N)n4] as the compound, how does the IC50 read?
The IC50 was less than 5 µM.

With Cc1c(-c2ccnc(N)n2)sc2ccc(C(=O)N(CCN(C)C)Cc3ccccc3)cc12 [Example 524, CN(C)CCN(Cc1ccccc1)C(═O)c2ccc3sc(c(C)c3c2)-c4ccnc(N)n4] as the compound, how does the IC50 read?
Its IC50 is less than 5 µM.

Cc1c(-c2ccnc(N)n2)sc2ccc(C(=O)N3CCCC(C(N)=O)C3)cc12 (stereo not shown) [Example 496, Cc1c(sc2ccc(cc12)C(═O)N3CCCC(C3)C(N)═O)-c4ccnc(N)n4] was tested. Which IC50 did it give?
Its IC50 is less than 5 µM.

Which IC50 does the source give for Cc1c(-c2ccnc(N)n2)sc2ccc(C(=O)NCCc3ccc(S(N)(=O)=O)cc3)cc12 [Example 454, Cc1c(sc2ccc(cc12)C(═O)NCCc3ccc(cc3)S(N)(═O)═O)-c4ccnc(N)n4] here?
Its IC50 is less than 5 µM.

Which IC50 does the source give for Cc1c(-c2ccnc(N)n2)sc2ccc(C(=O)N3CCC[C@@H]3CO)cc12 [Example 476, Cc1c(sc2ccc(cc12)C(═O)N3CCC[C@@H]3CO)-c4ccnc(N)n4] here?
The IC50 was less than 5 µM.

With CCN(CC)CCN(Cc1ccccc1)C(=O)c1ccc2sc(-c3ccnc(N)n3)c(C)c2c1 [Example 551, CCN(CC)CCN(Cc1ccccc1)C(═O)c2ccc3sc(c(C)c3c2)-c4ccnc(N)n4] as the compound, how does the IC50 read?
Its IC50 is less than 5 µM.

With Cc1c(-c2ccnc(N)n2)sc2ccc(C(=O)N(CCO)[C@H](C)c3ccccc3)cc12 [Example 516, C[C@@H](N(CCO)C(═O)c1ccc2sc(c(C)c2c1)-c3ccnc(N)n3)c4ccccc4] as the compound, how does the IC50 read?
Its IC50 is less than 5 µM.

Which IC50 does the source give for CCN(CC)CCCC(C)NC(=O)c1ccc2sc(-c3ccnc(N)n3)c(C)c2c1 (stereo not shown) [Example 431, CCN(CC)CCCC(C)NC(═O)c1ccc2sc(c(C)c2c1)-c3ccnc(N)n3] here?
The IC50 was greater than 5 µM.

Cc1c(-c2ccnc(N)n2)sc2ccc(C(=O)N(CCc3ccccc3)Cc3ccccc3)cc12 [Example 556, Cc1c(sc2ccc(cc12)C(═O)N(CCc3ccccc3)Cc4ccccc4)-c5ccnc(N)n5] was tested. Which IC50 did it give?
The IC50 was greater than 5 µM.

Which IC50 does the source give for Cc1c(-c2ccnc(N)n2)sc2ccc(C(=O)NCC3CC3)cc12 [Example 340, Cc1c(sc2ccc(cc12)C(═O)NCC3CC3)-c4ccnc(N)n4] here?
The IC50 was less than 5 µM.

Which IC50 does the source give for Cc1c(-c2ccnc(N)n2)sc2ccc(C(=O)NN3CCN(C)CC3)cc12 [Example 373, CN1CCN(CC1)NC(═O)c2ccc3sc(c(C)c3c2)-c4ccnc(N)n4] here?
The IC50 was less than 5 µM.

Which IC50 does the source give for CCOC(=O)C1CCN(C(=O)c2ccc3sc(-c4ccnc(N)n4)c(C)c3c2)CC1 [Example 509, CCOC(═O)C1CCN(CC1)C(═O)c2ccc3sc(c(C)c3c2)-c4ccnc(N)n4] here?
The IC50 was greater than 5 µM.

With Cc1c(-c2ccnc(N)n2)sc2ccc(C(=O)N3CCSCC3)cc12 [Example 479, Cc1c(sc2ccc(cc12)C(═O)N3CCSCC3)-c4ccnc(N)n4] as the compound, how does the IC50 read?
The IC50 was less than 5 µM.

Cc1c(-c2ccnc(N)n2)sc2ccc(C(=O)N[C@@H](C)c3ccccc3)cc12 [Example 376, C[C@H](NC(═O)c1ccc2sc(c(C)c2c1)-c3ccnc(N)n3)c4ccccc4] was tested. Which IC50 did it give?
Its IC50 is less than 5 µM.

CCCCN(Cc1ccccc1)C(=O)c1ccc2sc(-c3ccnc(N)n3)c(C)c2c1 [Example 515, CCCCN(Cc1ccccc1)C(═O)c2ccc3sc(c(C)c3c2)-c4ccnc(N)n4] was tested. Which IC50 did it give?
The IC50 was greater than 5 µM.

Which IC50 does the source give for CCN(CCO)C(=O)c1ccc2sc(-c3ccnc(N)n3)c(C)c2c1 [Example 470, CCN(CCO)C(═O)c1ccc2sc(c(C)c2c1)-c3ccnc(N)n3] here?
Its IC50 is less than 5 µM.

Which IC50 does the source give for Cc1c(-c2ccnc(N)n2)sc2ccc(C(=O)N3CCN(C4CCCCC4)CC3)cc12 [Example 519, Cc1c(sc2ccc(cc12)C(═O)N3CCN(CC3)C4CCCCC4)-c5ccnc(N)n5] here?
The IC50 was greater than 5 µM.

Which IC50 does the source give for Cc1c(-c2ccnc(N)n2)sc2ccc(C(=O)NCc3ccncc3)cc12 [Example 366, Cc1c(sc2ccc(cc12)C(═O)NCc3ccncc3)-c4ccnc(N)n4] here?
Its IC50 is less than 5 µM.

How did the IC50 turn out when Cc1c(-c2ccnc(N)n2)sc2ccc(C(=O)NCc3ccc(C(F)(F)F)cc3)cc12 [Example 444, Cc1c(sc2ccc(cc12)C(═O)NCc3ccc(cc3)C(F)(F)F)-c4ccnc(N)n4] was run?
The IC50 was greater than 5 µM.

With Cc1c(-c2ccnc(N)n2)sc2ccc(C(=O)NCc3ccc(Cl)c(Cl)c3)cc12 [Example 446, Cc1c(sc2ccc(cc12)C(═O)NCc3ccc(Cl)c(Cl)c3)-c4ccnc(N)n4] as the compound, how does the IC50 read?
Its IC50 is greater than 5 µM.

Cc1c(-c2ccnc(N)n2)sc2ccc(C(=O)N3CCN(c4cccc(Cl)c4)CC3)cc12 [Example 544, Cc1c(sc2ccc(cc12)C(═O)N3CCN(CC3)c4cccc(Cl)c4)-c5ccnc(N)n5] was tested. Which IC50 did it give?
The IC50 was less than 5 µM.

How did the IC50 turn out when Cc1c(-c2ccnc(N)n2)sc2ccc(C(=O)NCCN(C(C)C)C(C)C)cc12 [Example 416, CC(C)N(CCNC(═O)c1ccc2sc(c(C)c2c1)-c3ccnc(N)n3)C(C)C] was run?
Its IC50 is less than 5 µM.

C#CCNC(=O)c1ccc2sc(-c3ccnc(N)n3)c(C)c2c1 [Example 331, Cc1c(sc2ccc(cc12)C(═O)NCC#C)-c3ccnc(N)n3] was tested. Which IC50 did it give?
The IC50 was less than 5 µM.

With Cc1c(-c2ccnc(N)n2)sc2ccc(C(=O)NC3CCN(Cc4ccccc4)C3)cc12 (stereo not shown) [Example 448, Cc1c(sc2ccc(cc12)C(═O)NC3CCN(C3)Cc4ccccc4)-c5ccnc(N)n5] as the compound, how does the IC50 read?
The IC50 was less than 5 µM.

With COc1ccc(CCNC(=O)c2ccc3sc(-c4ccnc(N)n4)c(C)c3c2)cc1 [Example 423, COc1ccc(CCNC(═O)c2ccc3sc(c(C)c3c2)-c4ccnc(N)n4)cc1] as the compound, how does the IC50 read?
The IC50 was less than 5 µM.

For Cc1c(-c2ccnc(N)n2)sc2ccc(C(=O)NCc3cccc(F)c3)cc12 [Example 382, Cc1c(sc2ccc(cc12)C(═O)NCc3cccc(F)c3)-c4ccnc(N)n4], which IC50 is on record?
The IC50 was less than 5 µM.

For CC(=O)N[C@H]1CCN(C(=O)c2ccc3sc(-c4ccnc(N)n4)c(C)c3c2)C1 [Example 495, CC(═O)N[C@H]1CCN(C1)C(═O)c2ccc3sc(c(C)c3c2)-c4ccnc(N)n4], which IC50 is on record?
Its IC50 is greater than 5 µM.

With CCOc1ccccc1CNC(=O)c1ccc2sc(-c3ccnc(N)n3)c(C)c2c1 [Example 425, CCOc1ccccc1CNC(═O)c2ccc3sc(c(C)c3c2)-c4ccnc(N)n4] as the compound, how does the IC50 read?
The IC50 was less than 5 µM.

With Cc1c(-c2ccnc(N)n2)sc2ccc(C(=O)N3CCC(N(C)C)C3)cc12 (stereo not shown) [Example 484, CN(C)C1CCN(C1)C(═O)c2ccc3sc(c(C)c3c2)-c4ccnc(N)n4] as the compound, how does the IC50 read?
Its IC50 is less than 5 µM.

With Cc1c(-c2ccnc(N)n2)sc2ccc(C(=O)NCCN(C)C)cc12 [Example 351, CN(C)CCNC(═O)c1ccc2sc(c(C)c2c1)-c3ccnc(N)n3] as the compound, how does the IC50 read?
Its IC50 is less than 5 µM.

For CCCN(CCC)C(=O)c1ccc2sc(-c3ccnc(N)n3)c(C)c2c1 [Example 478, CCCN(CCC)C(═O)c1ccc2sc(c(C)c2c1)-c3ccnc(N)n3], which IC50 is on record?
The IC50 was less than 5 µM.

How did the IC50 turn out when Cc1c(-c2ccnc(N)n2)sc2ccc(C(=O)N3C(C)CCCC3C)cc12 (stereo not shown) [Example 483, CC1CCCC(C)N1C(═O)c2ccc3sc(c(C)c3c2)-c4ccnc(N)n4] was run?
Its IC50 is greater than 5 µM.

For Cc1c(-c2ccnc(N)n2)sc2ccc(C(=O)N3CCCC4CCCCC43)cc12 (stereo not shown) [Example 502, Cc1c(sc2ccc(cc12)C(═O)N3CCCC4CCCCC34)-c5ccnc(N)n5], which IC50 is on record?
The IC50 was greater than 5 µM.

How did the IC50 turn out when Cc1c(-c2ccnc(N)n2)sc2ccc(C(=O)N(Cc3ccccc3)C(C)C)cc12 [Example 505, CC(C)N(Cc1ccccc1)C(═O)c2ccc3sc(c(C)c3c2)-c4ccnc(N)n4] was run?
Its IC50 is less than 5 µM.

How did the IC50 turn out when Cc1c(-c2ccnc(N)n2)sc2ccc(C(=O)NCC3CCCCC3)cc12 [Example 369, Cc1c(sc2ccc(cc12)C(═O)NCC3CCCCC3)-c4ccnc(N)n4] was run?
The IC50 was less than 5 µM.

Which IC50 does the source give for Cc1c(-c2ccnc(N)n2)sc2ccc(C(=O)N3CCOCC3)cc12 [Example 466, Cc1c(sc2ccc(cc12)C(═O)N3CCOCC3)-c4ccnc(N)n4] here?
Its IC50 is less than 5 µM.

With Cc1c(-c2ccnc(N)n2)sc2ccc(C(=O)NC(C)CC(C)C)cc12 (stereo not shown) [Example 359, CC(C)CC(C)NC(═O)c1ccc2sc(c(C)c2c1)-c3ccnc(N)n3] as the compound, how does the IC50 read?
The IC50 was greater than 5 µM.

With COc1ccc(N2CCN(C(=O)c3ccc4sc(-c5ccnc(N)n5)c(C)c4c3)CC2)cc1 [Example 540, COc1ccc(cc1)N2CCN(CC2)C(═O)c3ccc4sc(c(C)c4c3)-c5ccnc(N)n5] as the compound, how does the IC50 read?
Its IC50 is less than 5 µM.

With COC[C@@H]1CCCN1C(=O)c1ccc2sc(-c3ccnc(N)n3)c(C)c2c1 [Example 487, COC[C@@H]1CCCN1C(═O)c2ccc3sc(c(C)c3c2)-c4ccnc(N)n4] as the compound, how does the IC50 read?
Its IC50 is greater than 5 µM.

With Cc1c(-c2ccnc(N)n2)sc2ccc(C(=O)NC3CCCCCC3)cc12 [Example 370, Cc1c(sc2ccc(cc12)C(═O)NC3CCCCCC3)-c4ccnc(N)n4] as the compound, how does the IC50 read?
Its IC50 is greater than 5 µM.

With Cc1c(-c2ccnc(N)n2)sc2ccc(C(=O)NCCc3ccc4c(c3)OCO4)cc12 [Example 456, Cc1c(sc2ccc(cc12)C(═O)NCCc3ccc4OCOc4c3)-c5ccnc(N)n5] as the compound, how does the IC50 read?
The IC50 was less than 5 µM.

For Cc1c(-c2ccnc(N)n2)sc2ccc(C(=O)NC3CCCC3)cc12 [Example 346, Cc1c(sc2ccc(cc12)C(═O)NC3CCCC3)-c4ccnc(N)n4], which IC50 is on record?
Its IC50 is less than 5 µM.
